According to patent publication US20130078718A1, “CONVERSION OF VASCULAR ENDOTHELIAL CELLS INTO MULTIPOTENT STEM-LIKE CELLS” (PRESIDENT AND FELLOWS OF HARVARD COLLEGE, priority 2010, published 2013):
“Also recorded” adds a separate entry of the source.

B1: BMP7: Recombinant BMP7 protein (R&D Systems), ALK2 activating ligand that inhibits EndMT (protein)
chain: STGSKQRSQNRSKTPKNQEALRMANVAENSSSDQRQACKKHELYVSFRDLGWQDWIIAPEGYAAYYCEGECAFPLNSYMNATNHAIVQTLVHFINPETVPKPCCAPTQLNAISVLYFDDSSNVILKKYRNMVVRACGCH

What was measured:
ALK2 = assay: siRNA knockdown of ALK2 expression (immunoblotting); assay type: cell-based, human; conditions: transfected for 24 hours
Procedure: (§1) siRNA gene expression knockdown studies were performed using the TriFECTa RNAi kit (Integrated DNA Technologies) and corresponding protocol. Each 27 mer siRNA duplex was transfected into cells using X-tremeGene siRNA transfection reagent (Roche) following the manufacturer's guidelines. siRNA was synthesized (Integrated DNA Technologies) with the following sequences: ALK2: 5′-[…]-3′ (SEQ ID NO: 51); negative control: 5′-[…]-3′ (SEQ ID NO: 52).
(§2) siRNA gene expression knockdown studies were performed using the TriFECTa RNAi kit (Integrated DNA Technologies) and corresponding protocol. Each 27 mer siRNA duplex was transfected into cells using X-tremeGene siRNA transfection reagent (Roche) following the manufacturer's guidelines. siRNA was synthesized (Integrated DNA Technologies) with the following sequences: […]

[1] = system: endothelial cells (HUVEC, HCMEC); assay: RNA interference: effect of ALK siRNA on TGF-β2- or BMP4-induced EndMT and multipotency; assay type: cell-based, human
Procedure: Cells were grown in StemPro osteogenic, chondrogenic, or adipogenic culture medium (Invitrogen). Alkaline phosphatase staining was performed using the alkaline phosphatase kit and protocol (Sigma-Aldrich) on cultures grown in osteogenic medium for 7 days to detect osteoblasts. Alizarin Red (Sigma-Aldrich) staining was performed for 30 minutes on cultures grown in osteogenic medium for 21 days to detect matrix calcification. Alcian Blue (Sigma) staining was used to stain chondrocyte proteoglycans for 5 minutes in cultures grown in chondrogenic medium for 14 days. Oil Red O (Sigma-Aldrich) staining was performed for 15 minutes on cultures grown in adipogenic medium for 7 days.
as §1
Cells were grown in StemPro osteogenic, chondrogenic, or adipogenic culture medium (Invitrogen). Alkaline phosphatase staining was performed using the alkaline phosphatase kit and protocol (Sigma-Aldrich) on cultures grown in osteogenic medium for 7 d to detect osteoblasts. Alizarin Red (Sigma-Aldrich) staining was performed for 30 min on cultures grown in osteogenic medium for 21 d to detect matrix calcification. Alcian Blue (Sigma) staining was used to stain chondrocyte proteoglycans for 5 minutes in cultures grown in chondrogenic medium for 14 d. Oil Red O (Sigma-Aldrich) staining was performed for 15 min on cultures grown in adipogenic medium for 7 d. For in vivo analysis, endothelial cells were labeled with fluorescent quantum dots using the Qtracker 525 Cell Labeling Kit (Invitrogen). Cells were treated in culture to induce EndMT then absorbed into OPLA polylactic acid scaffolds (BD Biosciences). Scaffolds were surgically implanted subcutaneously into immunodeficient nude mice (Nu/Nu strain; Charles River Laboratories). Local injection of StemPro differentiation medium (described above) was performed in the area of the implants every 72 h for 6 weeks. Scaffolds were cryosectioned and stained with Alizarin Red, Alcian Blue, or Oil Red O as described above. All procedures were reviewed and approved by the Institutional Animal Care and Use Committee at Harvard Medical School.
as §2

EndMT = conditions: references 30, 31; cited from earlier work
HUVECs = assay: Assessment of EndMT inhibitors (immunoblotting); assay type: cell-based, human; conditions: dorsomorphin 5 μM, BMP7 10 ng ml−1, VEGF 25 ng ml−1; for TGF-β2-induced changes in CD31, FSP-1 and CD44 expression (immunoblots): HUVECs
Procedure: Human umbilical vein endothelial cells (HUVEC) and human cutaneous microvascular endothelial cells (HCMEC) isolated as previously described (35). Cells were tested for purity and found to express no markers for lymphatic endothelial cells or stromal cells (pericytes, smooth muscle cells, etc.) (36). This was reconfirmed by flow cytometry analysis (data not shown). Clonal populations were isolated with PYREX 8×8 mm cloning cylinders (Corning) and shown to respond in a manner identical to that of the cultures used for our experiments (FIG. 25B-D). Cells were grown in culture using EGM-2 medium (Cambrex), containing 10% FBS and 1% Penicillin/Streptomycin, followed by human endothelial serum free medium (Gibco) 24 h prior to all experimental conditions. Bone marrow derived mesenchymal stem cells (ScienCell Research Laboratories) were grown in mesenchymal stem cell medium (ScienCell Research Laboratories). Bone marrow derived hematopoietic stem cells (Lonza) were grown in HPGM medium (Lonza). Human corneal fibroblasts, from a stock provided by Dr. Elizabeth Hay (Harvard Medical School), were grown in RPMI medium, containing 10% FBS and 1% Penicillin/Streptomycin. Primary human osteoblasts, chondrocytes, and adipocytes and their respective growth media were obtained from Cell Applications, Inc. […] Recombinant VEGF (R&D Systems) was added to cultures at a concentration of 25 ng ml^-1. Dorsomorphin (Sigma-Aldrich) was added to cultures at a concentration of 5 μM. All experiments for this study were performed at minimum in triplicate. Immunoassays were performed using the following antibodies at concentrations (and using protocols) recommended by the respective manufacturers: […] Stressgen), phospho-Smad2 (3101), Smad2 (3122), phospho-Smad5 (9516), Smad5 (9517; […] Santa Cruz Biotechnology), osterix (ab22552), adiponectin (ab22554), N-cadherin (ab76057), NG2 (ab83508), vWF (ab68545; Abcam); CD31 (IR610; Dako), […]; GenScript); α-SMA ([…]), β-actin (A1978; Sigma-Aldrich). Samples were run with Criterion precast SDS-PAGE Gels (Bio-Rad). […] TrueBlot IgG beads (eBioscience) were used for immunoprecipitation experiments. AlexaFluor secondary antibodies (Invitrogen) were used at a dilution of 1:200. Images were acquired using a Nikon 80i fluorescence microscope.

Smad2 and Smad5 = assay: Smad phosphorylation by immunoblotting; assay type: cell-based, human; conditions: HUVECs, 10 ng ml−1, 1 h
Procedure: Human umbilical vein endothelial cells (HUVEC) and human cutaneous microvascular endothelial cells (HCMEC) were provided by J. Bischoff (Children's Hospital Boston) and isolated as previously described^35. […] Cells were grown in culture using EGM-2 medium (Cambrex), containing 10% FBS and 1% Penicillin/Streptomycin, followed by human endothelial serum free medium (Gibco) 24 hours prior to all experimental conditions. Bone marrow derived mesenchymal stem cells (ScienCell Research Laboratories) were grown in mesenchymal stem cell medium (ScienCell Research Laboratories). Human corneal fibroblasts, from a stock initially provided by E. Hay (Harvard Medical School), were grown in RPMI medium, containing 10% FBS and 1% Penicillin/Streptomycin. Primary human osteoblasts, chondrocytes, and adipocytes and their respective growth media were obtained from Cell Applications Inc. Recombinant TGF-β2 and BMP4 proteins (R&D Systems) were added to the serum free culture medium for all relevant experiments at a concentration of 10 ng/mL. Cells were treated for 15 minutes to assess ALK2 phosphorylation, 1 hour to measure Smad5 phosphorylation, or 48 hours to induce EndMT. All experiments for this study were performed at minimum in triplicate.
Immunoassays were performed using the following antibodies at concentrations (and using protocols) recommended by the respective manufacturers: FSP-1 (H00006275-M01; Stressgen), ALK2 (sc-5671), Phospho-tyrosine (sc-7020), VE-cadherin (sc-6458), TIE2 (sc-324, sc-9026), STRO-1 (sc-47733), CD44 (sc-71220), CD90 (sc-9163), Osteocalcin (sc-74495, sc-23790), SOX9 (sc-20095), COL2A1 (sc-59958, sc-52658), PPARγ2 (sc-22022; Santa Cruz Biotechnology), vWF (ab68545; Abcam); His (A00174; GenScript); α-SMA (A5228), β-actin (A1978; Sigma-Aldrich). Samples were run with Criterion precast SDS-PAGE Gels (Bio-Rad). HRP-conjugated IgG TrueBlot reagents (18-8814, 18-8816, 18-8817; eBioscience) were used at a dilution of 1:1000. TrueBlot IgG beads (eBioscience) were used for immunoprecipitation experiments. Alexa Fluor secondary antibodies (Invitrogen) were used at a dilution of 1:200. Images were acquired using a Nikon 80i fluorescence microscope.
Human umbilical vein endothelial cells (HUVEC) and human cutaneous microvascular endothelial cells (HCMEC) isolated as previously described (35). […] Cells were grown in culture using EGM-2 medium (Cambrex), containing 10% FBS and 1% Penicillin/Streptomycin, followed by human endothelial serum free medium (Gibco) 24 h prior to all experimental conditions. Bone marrow derived mesenchymal stem cells (ScienCell Research Laboratories) were grown in mesenchymal stem cell medium (ScienCell Research Laboratories). Bone marrow derived hematopoietic stem cells (Lonza) were grown in HPGM medium (Lonza). Human corneal fibroblasts, from a stock provided by Dr. Elizabeth Hay (Harvard Medical School), were grown in RPMI medium, containing 10% FBS and 1% Penicillin/Streptomycin. Primary human osteoblasts, chondrocytes, and adipocytes and their respective growth media were obtained from Cell Applications, Inc. Recombinant TGF-β2, BMP4, and BMP7 proteins (R&D Systems) were added to the serum free culture medium for all relevant experiments at a concentration of 10 ng ml^−1. Recombinant VEGF (R&D Systems) was added to cultures at a concentration of 25 ng ml^−1. Dorsomorphin (Sigma-Aldrich) was added to cultures at a concentration of 5 μM.

ALK2 with ALK5 = biological target: T1, ALK2 with ALK5 (Homo sapiens, UniProt Q04771); assay: Interaction of ALK2 with ALK5: immunoprecipitation of ALK2, immunoblotting for ALK5; assay type: cell-based; conditions: 10 ng ml−1, 15 min
T1 construct: endogenous in cells; host or cells: HUVEC
T1 sequence (Q04771 21-509): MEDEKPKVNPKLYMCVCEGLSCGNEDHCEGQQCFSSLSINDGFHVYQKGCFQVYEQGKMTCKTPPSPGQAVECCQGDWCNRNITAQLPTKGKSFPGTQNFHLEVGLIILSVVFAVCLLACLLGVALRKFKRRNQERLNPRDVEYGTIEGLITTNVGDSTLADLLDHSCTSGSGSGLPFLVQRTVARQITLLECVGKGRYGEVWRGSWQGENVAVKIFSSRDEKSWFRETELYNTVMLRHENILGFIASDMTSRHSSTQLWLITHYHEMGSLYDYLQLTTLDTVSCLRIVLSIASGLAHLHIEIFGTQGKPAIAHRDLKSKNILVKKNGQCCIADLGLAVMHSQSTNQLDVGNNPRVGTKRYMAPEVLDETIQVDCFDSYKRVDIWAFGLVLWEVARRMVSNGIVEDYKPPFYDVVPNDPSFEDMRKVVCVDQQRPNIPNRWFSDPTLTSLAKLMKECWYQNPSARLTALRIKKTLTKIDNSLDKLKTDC
Procedure: Human umbilical vein endothelial cells (HUVEC) and human cutaneous microvascular endothelial cells (HCMEC) isolated as previously described (35). Cells were tested for purity and found to express no markers for lymphatic endothelial cells or stromal cells (pericytes, smooth muscle cells, etc.) (36). This was reconfirmed by flow cytometry analysis (data not shown). Clonal populations were isolated with PYREX 8×8 mm cloning cylinders (Corning) and shown to respond in a manner identical to that of the cultures used for our experiments (FIG. 25B-D). Cells were grown in culture using EGM-2 medium (Cambrex), containing 10% FBS and 1% Penicillin/Streptomycin, followed by human endothelial serum free medium (Gibco) 24 h prior to all experimental conditions. Bone marrow derived mesenchymal stem cells (ScienCell Research Laboratories) were grown in mesenchymal stem cell medium (ScienCell Research Laboratories). Bone marrow derived hematopoietic stem cells (Lonza) were grown in HPGM medium (Lonza). Human corneal fibroblasts, from a stock provided by Dr. Elizabeth Hay (Harvard Medical School), were grown in RPMI medium, containing 10% FBS and 1% Penicillin/Streptomycin. Primary human osteoblasts, chondrocytes, and adipocytes and their respective growth media were obtained from Cell Applications, Inc. […] Recombinant VEGF (R&D Systems) was added to cultures at a concentration of 25 ng ml^-1. Dorsomorphin (Sigma-Aldrich) was added to cultures at a concentration of 5 μM. All experiments for this study were performed at minimum in triplicate. Immunoassays were performed using the following antibodies at concentrations (and using protocols) recommended by the respective manufacturers: […] Stressgen), phospho-Smad2 (3101), Smad2 (3122), phospho-Smad5 (9516), Smad5 (9517; […] Santa Cruz Biotechnology), osterix (ab22552), adiponectin (ab22554), N-cadherin (ab76057), NG2 (ab83508), vWF (ab68545; Abcam); CD31 (IR610; Dako), […]; GenScript); α-SMA ([…]), β-actin (A1978; Sigma-Aldrich). […] Images were acquired using a Nikon 80i fluorescence microscope.

[2] = siRNA 24 hours, then TGF-β2 or BMP4 48 hours
[3] = siRNA transfected, osteogenic medium 7 days

Molecule | ALK2 expression (immunoblotting) (ALK2) | TGF-β2- or BMP4-induced decrease in VE-cadherin and increase in CD44 expression (ELISA) ([1]; HUVECs, ALK-specific siRNA) | TGF-β2- or BMP4-induced increases in FSP-1 and STRO-1 expression (immunoblotting) ([1]; siRNA 24 h, then TGF-β2 or BMP4 48 h) | TGF-β2- or BMP4-induced STRO-1 expression (immunoblotting) [1, 2] | TGF-β2- or BMP4-induced increase in FSP-1 expression (immunoblotting) [1, 2] | cells expressing FSP-1 after TGF-β2 or BMP4 (flow cytometry) [1, 2] | TGF-β2- or BMP4-induced increases in osteocalcin and osterix expression (real-time quantitative PCR) [1, 3] | alkaline phosphatase staining of TGF-β2 or BMP4 treated cultures [1, 3] | effect on EndMT (EndMT) | TGF-β2-induced changes in CD31, FSP-1 and CD44 expression (immunoblots) (HUVECs) | effect on EndMT (inhibitor) (HUVECs) | phosphorylation of Smad2 and Smad5 (immunoblotting) (Smad2 and Smad5) | ALK5 in ALK2 immunoprecipitates (ALK2 with ALK5)
ALK2 siRNA: 27 mer siRNA duplex 5'-GCAACACUGUCCAUUCUUCUUAACCAG-3′ (SEQ ID NO: 51/56) (chemistry not fully specified) | complete inhibition | inhibited | blocked these increases | prevented TGF-β2- or BMP4-induced increases | completely blocked these increases | very few cells expressing FSP-1 | prevented these increases | no positive staining and none |  |  |  |  | 
VEGF |  |  |  |  |  |  |  |  | inhibit EndMT | inhibition of TGF-β2-induced decreases in CD31 and increases in FSP-1 and CD44 expression | inhibitors of EndMT |  | 
B1 |  |  |  |  |  |  |  |  |  | inhibition of TGF-β2-induced decreases in CD31 and increases in FSP-1 and CD44 expression | inhibits EndMT; also recorded: inhibitors of EndMT | stimulated phosphorylation of only Smad5 | No interaction of ALK2 and ALK5
